Measurements: ChEMBL document CHEMBL4837202, “Design, synthesis of novel celastrol derivatives and study on their antitumor growth through HIF-1α pathway” (Eur J Med Chem, 2021)
≈ marks a conversion by molar mass, not a printed value. Calls of active or inactive are those of the source. No cut-off for these calls is given here.

Experiments:
Hep 3B2 [1] = test: Cytotoxicity against human Hep3B cells assessed as reduction in cell viability incubated for 24 hrs under normaxic condition by MTT assay; assay type: cell-based
[2] = Solubility of the compound in water measured by UV-Visible spectral analysis; assay type: physicochemical
Hep 3B2 [3] = test: Inhibition of hypoxia-induced HIF1alpha protein expression in human Hep3B cells incubated for 12 hrs in presence of 1% O2 under hypoxic condition by Western blot analysis; assay type: functional, cell-based; conditions: dose 1-10 µM
Hep 3B2 [4] = test: Antiproliferative activity against human Hep3B cells assessed as reduction in colony formation incubated for 7 days by crystal violet staining based assay; assay type: functional, cell-based; conditions: dose 1-10 µM, time 7.0 day
Hep 3B2 [5] = test: Inhibition of cell migration in human Hep3B cells at incubated for 24 hrs by scratch wound healing assay; assay type: functional, cell-based; conditions: dose 1-10 µM
Hep 3B2 [6] = test: Inhibition of cell migration in human Hep3B cells at incubated for 48 hrs by scratch wound healing assay; assay type: functional, cell-based; conditions: dose 1-10 µM
Hep 3B2 [7] = test: Induction of apoptosis in human Hep3B cells assessed as early apoptotic cells at 1 uM incubated for 24 hrs by PI and annexin V-FITC staining based flow cytometry (reference value: 1.2%); assay type: functional
Hep 3B2 [8] = test: Induction of apoptosis in human Hep3B cells assessed as late apoptotic cells at 1 uM incubated for 24 hrs by PI and annexin V-FITC staining based flow cytometry (reference value: 1.6%); assay type: functional
Hep 3B2 [9] = test: Induction of apoptosis in human Hep3B cells assessed as necrotic cells at 1 uM incubated for 24 hrs by PI and annexin V-FITC staining based flow cytometry (reference value: 0.1%); assay type: functional
Hep 3B2 [10] = test: Induction of apoptosis in human Hep3B cells assessed as viable cells at 1 uM incubated for 24 hrs by PI and annexin V-FITC staining based flow cytometry (reference value: 97.0%); assay type: functional; conditions: read-out: Activity
Hep 3B2 [11] = test: Induction of apoptosis in human Hep3B cells assessed as early apoptotic cells at 3 uM incubated for 24 hrs by PI and annexin V-FITC staining based flow cytometry (reference value: 1.2%); assay type: functional
Hep 3B2 [12] = test: Induction of apoptosis in human Hep3B cells assessed as late apoptotic cells at 3 uM incubated for 24 hrs by PI and annexin V-FITC staining based flow cytometry (reference value: 1.6%); assay type: functional
Hep 3B2 [13] = test: Induction of apoptosis in human Hep3B cells assessed as necrotic cells at 3 uM incubated for 24 hrs by PI and annexin V-FITC staining based flow cytometry (reference value: 0.1%); assay type: functional
Hep 3B2 [14] = test: Induction of apoptosis in human Hep3B cells assessed as viable cells at 3 uM incubated for 24 hrs by PI and annexin V-FITC staining based flow cytometry (reference value: 97.0%); assay type: functional; conditions: read-out: Activity
Hep 3B2 [15] = test: Induction of apoptosis in human Hep3B cells assessed as early apoptotic cells at 10 uM incubated for 24 hrs by PI and annexin V-FITC staining based flow cytometry (reference value: 1.2%); assay type: functional
Hep 3B2 [16] = test: Induction of apoptosis in human Hep3B cells assessed as late apoptotic cells at 10 uM incubated for 24 hrs by PI and annexin V-FITC staining based flow cytometry (reference value: 1.6%); assay type: functional
Hep 3B2 [17] = test: Induction of apoptosis in human Hep3B cells assessed as necrotic cells at 10 uM incubated for 24 hrs by PI and annexin V-FITC staining based flow cytometry (reference value: 0.1%); assay type: functional
Hep 3B2 [18] = test: Induction of apoptosis in human Hep3B cells assessed as viable cells at 10 uM incubated for 24 hrs by PI and annexin V-FITC staining based flow cytometry (reference value: 97.0%); assay type: functional; conditions: read-out: Activity
HCT-116 [19] = test: Antitumour activity against human HCT-116 cells xenografted in nude BALB/c mouse assessed as tumour growth inhibition at 5 mg/kg, ip administered for 20 days relative to control; assay type: functional; set-up: scale not given: the % may be the effect or the level left; conditions: time 20 day
HCT-116 [20] = test: Antitumour activity against human HCT-116 cells xenografted in nude BALB/c mouse assessed as tumour growth inhibition at 10 mg/kg, ip administered for 20 days relative to control; assay type: functional; set-up: scale not given: the % may be the effect or the level left; conditions: time 20 day
[21] = Toxicity in BALB/c mouse xenografted […] HCT-116 cells assessed as effect on body weight at 5 mg/kg, ip administered every day measured after 21 days; assay type: organism-based; conditions: in vivo, 504 h, time 21 day
[22] = Toxicity in BALB/c mouse xenografted […] HCT-116 cells assessed as effect on body weight at 10 mg/kg, ip administered every day measured after 21 days; assay type: organism-based; conditions: in vivo, 504 h, time 21 day
HCT-116 [23] = test: Antitumour activity against human HCT-116 cells xenografted BALB/c mouse with assessed as morphological changes in tumour tissue at 5 mg/kg, ip administered every day measured after 21 days H and E staining based optical microscopic method; assay type: functional, organism-based; conditions: time 21.0 day
HCT-116 [24] = test: Antitumour activity against human HCT-116 cells xenografted BALB/c mouse with assessed as morphological changes in tumour tissue at 10 mg/kg, ip administered every day measured after 21 days H and E staining based optical microscopic method; assay type: functional, organism-based; conditions: time 21.0 day

Compound: COc1ccc(-n2cc(CNC(=O)COC(=O)[C@]3(C)CC[C@]4(C)CC[C@]5(C)C6=CC=C7C(=CC(=O)C(O)=C7C)[C@]6(C)CC[C@@]5(C)[C@@H]4C3)nn2)cc1
- IC50 (Hep 3B2 [1]): 9110 nM

Compound: CC1=C(O)C(=O)C=C2C1=CC=C1[C@@]2(C)CC[C@@]2(C)[C@@H]3C[C@](C)(C(=O)OCCOc4cnc5ccccc5c4)CC[C@]3(C)CC[C@]12C
- solubility [2]: 28.1 µg/mL (≈ 45.2 µM)
- IC50 (Hep 3B2 [1]): 16800 nM
- Activity (Hep 3B2 [3]): Dose-Dependent Effect
- Activity (Hep 3B2 [4]): Dose-Dependent Effect
- inhibition (Hep 3B2 [5]): Dose-Dependent Effect
- inhibition (Hep 3B2 [6]): Dose-Dependent Effect
- Activity (Hep 3B2 [7]): 1.9%
- Activity (Hep 3B2 [8]): 1.4%
- Activity (Hep 3B2 [9]): 0.2%
- viability at 1 µM (Hep 3B2 [10]): 96.6%
- Activity (Hep 3B2 [11]): 1.9%
- Activity (Hep 3B2 [12]): 2%
- Activity (Hep 3B2 [13]): 0%
- viability at 3 µM (Hep 3B2 [14]): 96.1%
- Activity (Hep 3B2 [15]): 6.2%
- Activity (Hep 3B2 [16]): 5.7%
- Activity (Hep 3B2 [17]): 0.2%
- viability at 10 µM (Hep 3B2 [18]): 87.9%
- Activity (HCT-116 [19]): 60.38%
- Activity (HCT-116 [20]): 74.3%
- Activity [21]: Non-Toxic
- Activity [22]: Non-Toxic
- Activity (HCT-116 [23]): Active
- Activity (HCT-116 [24]): Active

Compound: CCOP(=O)(OCC)C(NC(=O)COC(=O)[C@]1(C)CC[C@]2(C)CC[C@]3(C)C4=CC=C5C(=CC(=O)C(O)=C5C)[C@]4(C)CC[C@@]3(C)[C@@H]2C1)c1ccccc1 (some centres not stated)
- IC50 (Hep 3B2 [1]): 1170 nM

Compound: CC1=C(O)C(=O)C=C2C1=CC=C1[C@@]2(C)CC[C@@]2(C)[C@@H]3C[C@](C)(C(=O)OCC(=O)Nc4ccc(F)nc4)CC[C@]3(C)CC[C@]12C
- IC50 (Hep 3B2 [1]): 4210 nM

Compound: CCOP(=O)(OCC)C(NC(=O)COC(=O)[C@]1(C)CC[C@]2(C)CC[C@]3(C)C4=CC=C5C(=CC(=O)C(O)=C5C)[C@]4(C)CC[C@@]3(C)[C@@H]2C1)c1ccc(OC)cc1 (some centres not stated)
- IC50 (Hep 3B2 [1]): 1480 nM

Compound: CC1=C(O)C(=O)C=C2C1=CC=C1[C@@]2(C)CC[C@@]2(C)[C@@H]3C[C@](C)(C(=O)OCCOc4cc(=O)oc5ccccc45)CC[C@]3(C)CC[C@]12C
- IC50 (Hep 3B2 [1]): 134000 nM

Compound: CC1=C(O)C(=O)C=C2C1=CC=C1[C@@]2(C)CC[C@@]2(C)[C@@H]3C[C@](C)(C(=O)OCC(=O)Nc4ccnc5ccccc45)CC[C@]3(C)CC[C@]12C
- IC50 (Hep 3B2 [1]): 4000 nM

Compound: CC1=C(O)C(=O)C=C2C1=CC=C1[C@@]2(C)CC[C@@]2(C)[C@@H]3C[C@](C)(C(=O)OCC(=O)NCc4cn(-c5ccccc5)nn4)CC[C@]3(C)CC[C@]12C
- IC50 (Hep 3B2 [1]): 1160 nM

Compound: CC1=C(O)C(=O)C=C2C1=CC=C1[C@@]2(C)CC[C@@]2(C)[C@@H]3C[C@](C)(C(=O)OCC(=O)Nc4cccc5ncccc45)CC[C@]3(C)CC[C@]12C
- IC50 (Hep 3B2 [1]): 1110 nM

Compound: CCOP(=O)(OCC)C(NC(=O)COC(=O)[C@]1(C)CC[C@]2(C)CC[C@]3(C)C4=CC=C5C(=CC(=O)C(O)=C5C)[C@]4(C)CC[C@@]3(C)[C@@H]2C1)c1ccc(F)cc1 (some centres not stated)
- IC50 (Hep 3B2 [1]): 2330 nM

Compound: CC1=C(O)C(=O)C=C2C1=CC=C1[C@@]2(C)CC[C@@]2(C)[C@@H]3C[C@](C)(C(=O)OCC(=O)NCc4cn(-c5ccc(Cl)cc5)nn4)CC[C@]3(C)CC[C@]12C
- IC50 (Hep 3B2 [1]): 21900 nM

Compound: CC1=C(O)C(=O)C=C2C1=CC=C1[C@@]2(C)CC[C@@]2(C)[C@@H]3C[C@](C)(C(=O)OCC(=O)Nc4ccc5ncccc5c4)CC[C@]3(C)CC[C@]12C
- IC50 (Hep 3B2 [1]): 2910 nM

Compound: CC1=C(O)C(=O)C=C2C1=CC=C1[C@@]2(C)CC[C@@]2(C)[C@@H]3C[C@](C)(C(=O)OCCOc4cc(C)oc(=O)c4)CC[C@]3(C)CC[C@]12C
- IC50 (Hep 3B2 [1]): 1160 nM

Compound: CC1=C(O)C(=O)C=C2C1=CC=C1[C@@]2(C)CC[C@@]2(C)[C@@H]3C[C@](C)(C(=O)OCC(=O)Nc4cnc5ccccc5c4)CC[C@]3(C)CC[C@]12C
- IC50 (Hep 3B2 [1]): 1040 nM

Compound: CC1=C(O)C(=O)C=C2C1=CC=C1[C@@]2(C)CC[C@@]2(C)[C@@H]3C[C@](C)(C(=O)OCCOc4ccc5cccnc5c4)CC[C@]3(C)CC[C@]12C
- IC50 (Hep 3B2 [1]): 5270 nM

Compound: CC1=C(O)C(=O)C=C2C1=CC=C1[C@@]2(C)CC[C@@]2(C)[C@@H]3C[C@](C)(C(=O)OCC(=O)Nc4cc(C)on4)CC[C@]3(C)CC[C@]12C
- IC50 (Hep 3B2 [1]): 3070 nM

Compound: CCOP(=O)(OCC)C(NC(=O)COC(=O)[C@]1(C)CC[C@]2(C)CC[C@]3(C)C4=CC=C5C(=CC(=O)C(O)=C5C)[C@]4(C)CC[C@@]3(C)[C@@H]2C1)c1ccc(C)cc1 (some centres not stated)
- IC50 (Hep 3B2 [1]): 4550 nM

Compound: CC1=C(O)C(=O)C=C2C1=CC=C1[C@@]2(C)CC[C@@]2(C)[C@@H]3C[C@](C)(C(=O)OCC(=O)Nc4ccc(F)cn4)CC[C@]3(C)CC[C@]12C
- IC50 (Hep 3B2 [1]): 1260 nM

Compound: CC1=C(O)C(=O)C=C2C1=CC=C1[C@@]2(C)CC[C@@]2(C)[C@@H]3C[C@](C)(C(=O)OCC(=O)NCc4cn(-c5ccc(C)cc5)nn4)CC[C@]3(C)CC[C@]12C
- IC50 (Hep 3B2 [1]): 2720 nM

Compound: CC1=C(O)C(=O)C=C2C1=CC=C1[C@@]2(C)CC[C@@]2(C)[C@@H]3C[C@](C)(C(=O)OCC(=O)NCc4cn(-c5ccc(Cl)c(Cl)c5)nn4)CC[C@]3(C)CC[C@]12C
- IC50 (Hep 3B2 [1]): 2450 nM

Compound: CC1=C(O)C(=O)C=C2C1=CC=C1[C@@]2(C)CC[C@@]2(C)[C@@H]3C[C@](C)(C(=O)OCC(=O)Nc4ccncc4)CC[C@]3(C)CC[C@]12C
- IC50 (Hep 3B2 [1]): 234000 nM

Compound: CC1=C(O)C(=O)C=C2C1=CC=C1[C@@]2(C)CC[C@@]2(C)[C@@H]3C[C@](C)(C(=O)O)CC[C@]3(C)CC[C@]12C [CELASTROL]
- solubility [2]: 38.2 µg/mL (≈ 84.8 µM)
- IC50 (Hep 3B2 [1]): 760 nM

Compound: O=c1[nH]cc(F)c(=O)[nH]1 [FLUOROURACIL]
- Activity (HCT-116 [20]): 59.58%
- Activity [22]: Non-Toxic
- Activity (HCT-116 [24]): Active

Compound: CC1=C(O)C(=O)C=C2C1=CC=C1[C@@]2(C)CC[C@@]2(C)[C@@H]3C[C@](C)(C(=O)OCCOc4ccc5ccc(=O)oc5c4)CC[C@]3(C)CC[C@]12C
- IC50 (Hep 3B2 [1]): 2450 nM

Compound: CC1=C(O)C(=O)C=C2C1=CC=C1[C@@]2(C)CC[C@@]2(C)[C@@H]3C[C@](C)(C(=O)OCCOc4cccc5ncccc45)CC[C@]3(C)CC[C@]12C
- IC50 (Hep 3B2 [1]): 14400 nM

Compound: CC1=C(O)C(=O)C=C2C1=CC=C1[C@@]2(C)CC[C@@]2(C)[C@@H]3C[C@](C)(C(=O)OCC(=O)Nc4cccc5cccnc45)CC[C@]3(C)CC[C@]12C
- IC50 (Hep 3B2 [1]): 1690 nM
